This passage reports IC50 results from US11066443B2 (Hoffmann-La Roche Inc., priority 2017, dated 2021).

As usually defined, the pIC50 is the IC50 on a negative log10 scale, so that one unit is a factor of ten.

pIC50: −log10 of the molar value.

The subject of this test is P. aeruginosa NCTC11454. The test can be described thus: Antimicrobial susceptibility testing: 50% growth inhibitory concentration (IC50) determination. It is filed as cell-based. The conditions noted are these: Pseudomonas aeruginosa, Iso-Sensitest broth, OD 600 nm every 20 minutes over 16h, growth inhibition during logarithmic growth. As to the method:
The in vitro antimicrobial activity of the compounds was alternatively determined according to the following procedure: The assay used a 10-points Iso-Sensitest broth medium to measure quantitatively the in vitro activity of the compounds against P. aeruginosa NCTC11454. Stock compounds in DMSO were serially twofold diluted (e.g. range from 50 to 0.097 μM final concentration) in 384 wells microtiter plates and inoculated with 49 μl the bacterial suspension in Iso-Sensitest medium to have a final cell concentration of ˜5×10^(5) CFU/ml in a final volume/well of 50 ul/well. Microtiter plates were incubated at 35±2° C. Bacterial cell growth was determined with the measurement of optical density at λ=600 nm each 20 minutes over a time course of 16h. Growth inhibition was calculated during the logarithmic growth of the bacterial cells with determination of the concentration inhibiting 50% (IC50) and 90% (IC90) of the growth. Table 2 provides the 50% growth inhibitory concentrations (IC50) in micromoles per liter of the compounds of present invention obtained against P. aeruginosa NCTC11454.
For the compound `CN1C(=O)[C@H](CCCCN)NC(=O)[C@H](CCCN)NCc2ccccc2Sc2c(Cl)cc(-c3cccnc3)cc2CNC(=O)[C@@H]1Cc1c[nH]c2ccccc12` [Example 34, (12S,15S,18S)-15-(4-Amino-butyl)-18-(3-amino-propyl)-4-chloro-12-(1H-indol-3-ylmethyl)-13-methyl-6-pyridin-3-yl-2-thia-10,13,16,19-tetraaza-tricyclo[19.4.0.0*3,8*]pentacosa-1(25),3,5,7,21,23-hexaene-11,14,17-trione], the pIC50 was 4.56.
With `CN1C(=O)[C@H](CCCCN)NC(=O)[C@H](CCCN)NCc2cccnc2Sc2c(Cl)cc(-c3ccccc3)cc2CNC(=O)[C@@H]1Cc1c[nH]c2ccccc12` [Example 35, 11-(3-amino-propyl)-25-chloro-17-(1H-indol-3-ylmethyl)-16-methyl-23-phenyl-2-thia-4,10,13,16,19-pentaaza-tricyclo[9.4.0.0*3,8*]pentacsa-(25),3(8),4,6,21,23-hexaene-12,15,18-trione], the pIC50 was 5.09.
For `CN1C(=O)[C@H](CCCCN)NC(=O)[C@H](CCCN)NCc2ccccc2Sc2c(Cl)cc(Br)cc2CNC(=O)[C@@H]1Cc1c[nH]c2ccccc12` [Example 36, (12S,15S,18S)-15-(4-Amino-butyl)-18-(3-amino-propyl)-6-bromo-4-chloro-12-(1H-indol-3-ylmethyl)-13-methyl-2-thia-10,13,16,19-tetraaza-tricyclo[19.4.0.0*3,8*]pentacosa-1(25),3,5,7,21,23-hexaene-11,14,17-trione], the pIC50 was 4.90.
`CN1C(=O)[C@H](CCCCN)NC(=O)[C@H](CCC(N)=O)NCc2ccccc2Sc2c(cc(-c3ccccc3)cc2C(F)(F)F)CNC(=O)[C@@H]1Cc1c[nH]c2ccccc12` [Example 38, 3-[(11S,14S,17S)-14-(4-Amino-butyl)-17-(1H-indol-3-ylmethyl)-16-methyl-12,15,18-trioxo-23-phenyl-25-trifluoromethyl-2-thia-10,13,16,19-tetraaza-tricyclo[19.4.0.0*3,8*]pentacosa-1(25),3,5,7,21,23-hexaen-11-yl]-propionamide] showed a pIC50 of 4.84.
Regarding `CN1C(=O)[C@H](CCC(N)=O)NC(=O)[C@H](CCCN)NCc2ccccc2Sc2c(cc(-c3ccccc3)cc2C(F)(F)F)CNC(=O)[C@@H]1Cc1c[nH]c2ccccc12` [Example 39, 3-[(11S,14S,17S)-11-(3-Amino-propyl)-17-(1H-indol-3-ylmethyl)-16-methyl-12,15,18-trioxo-23-phenyl-25-trifluoromethyl-2-thia-10,13,16,19-tetraaza-tricyclo[19.4.0.0*3,8*]pentacosa-1(25),3,5,7,21,23-hexaen-14-yl]-propionamide], the pIC50 is 4.63.
In turn, `CN1C(=O)[C@H](CCCCN)NC(=O)[C@H](CCCN)NCc2cccnc2Sc2c(Cl)cc(-c3ccnc(Cl)c3)cc2CNC(=O)[C@@H]1Cc1c[nH]c2ccccc12` [Example 40, (11S,14S,17S)-14-(4-Amino-butyl)-11-(3-amino-propyl)-25-chloro-23-(2-chloro-pyridin-4-yl)-17-(1H-indol-3-ylmethyl)-16-methyl-2-thia-4,10,13,16,19-pentaaza-tricyclo[19.4.0.0*3,8*]pentacosa-1(21),3,5,7,22,24-hexaene-12,15,18-trione] had a pIC50 of 4.60.
In turn, `CN1C(=O)[C@H](CCCCN)NC(=O)[C@H](CCCN)NCc2ccccc2Sc2c(ccc(Br)c2Cl)CNC(=O)[C@@H]1Cc1c[nH]c2ccccc12` [Example 41, (12S,15S,18S)-15-(4-Amino-butyl)-18-(3-amino-propyl)-5-bromo-4-chloro-12-(1H-indol-3-ylmethyl)-13-methyl-2-thia-10,13,16,19-tetraaza-tricyclo[19.4.0.0*3,8*]pentacosa-1(25),3,5,7,21,23-hexaene-11,14,17-trione] had a pIC50 of 5.19.
Compound `CN1C(=O)[C@H](CCCCN)NC(=O)[C@H](CCCN)NCc2ccccc2Sc2c(ccc(-c3ccccc3)c2Cl)CNC(=O)[C@@H]1Cc1c[nH]c2ccccc12` [Example 42, (12S,15S,18S)-15-(4-Amino-butyl)-18-(3-amino-propyl)-4-chloro-12-(1H-indol-3-ylmethyl)-13-methyl-5-phenyl-2-thia-10,13,16,19-tetraaza-tricyclo[19.4.0.0*3,8*]pentacosa-1(25),3,5,7,21,23-hexaene-11,14,17-trione] had a pIC50 of 5.46.
`CN1C(=O)[C@H](CCCCN)NC(=O)[C@H](CCCN)NCc2ccccc2Sc2ncc(Cl)cc2CNC(=O)[C@@H]1Cc1c[nH]c2ccccc12` [Example 43] gave a pIC50 of 4.64.
On to `Cc1[nH]c2ccccc2c1C[C@H]1C(=O)NCc2cc(-c3ccnc(Cl)c3)cc(Cl)c2Sc2ncccc2CN[C@@H](CCCN)C(=O)N[C@@H](CCCCN)C(=O)N1C` [Example 44, (11S,14S,17S)-14-(4-Amino-butyl)-11-(3-amino-propyl)-25-chloro-23-(2-chloro-pyridin-4-yl)-16-methyl-17-(2-methyl-1H-indol-3-ylmethyl)-2-thia-4,10,13,16,19-pentaaza-tricyclo[19.4.0.0*3,8*]pentacosa-1(25),3(8),4,6,21,23-hexaene-12,15,18-trione], for which the pIC50 was 4.57.
Under `CN1C(=O)[C@H](CCCCN)NC(=O)[C@H](CCCN)NCc2cccnc2Sc2c(Cl)cc(C#CCOCc3ccccc3)cc2CNC(=O)[C@@H]1Cc1c[nH]c2ccccc12` [Example 45, (11S,14S,17S)-14-(4-Amino-butyl)-11-(3-amino-propyl)-23-(3-benzyloxy-prop-1-ynyl)-25-chloro-17-(1H-indol-3-ylmethyl)-16-methyl-2-thia-4,10,13,16,19-pentaaza-tricyclo[19.4.0.0*3,8*]pentacosa-1(25),3(8),4,6,21,23-hexaene-12,15,18-trione] stands 5.22.
Compound `CN1C(=O)[C@H](CCCCN)NC(=O)[C@H](CCCN)NCc2ccccc2Sc2nc(N3CCOCC3)ccc2CNC(=O)[C@@H]1Cc1c[nH]c2ccccc12` [Example 46] had a negative logarithm of the IC50 (pIC50) of 4.69. Compared with the last compound, the pIC50 is 0.53 log units lower.
`Cc1[nH]c2ccccc2c1C[C@H]1C(=O)NCc2c(-c3ccncc3)ccc(Cl)c2Sc2ncccc2CN[C@@H](CCCN)C(=O)N[C@@H](CCCCN)C(=O)N1C` [Example 47, (11S,14S,17S)-14-(4-Amino-butyl)-11-(3-amino-propyl)-25-chloro-16-methyl-17-(2-methyl-1H-indol-3-ylmethyl)-22-pyridin-4-yl-2-thia-4,10,13,16,19-pentaaza-tricyclo[19.4.0.0*3,8*]pentacosa-1(25),3(8),4,6,21,23-hexaene-12,15,18-trione] had a pIC50 of 5.56.
Take `CN1C(=O)[C@H](CCCCN)NC(=O)[C@H](CCCN)NCc2cc(Br)ccc2Sc2c(Cl)cccc2CNC(=O)[C@@H]1Cc1c[nH]c2ccccc12` [Example 48, (12S,15S,18S)-15-(4-Amino-butyl)-18-(3-amino-propyl)-23-bromo-4-chloro-12-(1H-indol-3-ylmethyl)-13-methyl-2-thia-10,13,16,19-tetraaza-tricyclo[19.4.0.0*3,8*]pentacosa-1(25),3,5,7,21,23-hexaene-11,14,17-trione]: the pIC50 was 4.85. This pIC50 is 0.71 log units lower than that of the compound before.
Consider `CN1C(=O)[C@H](CCCCN)NC(=O)[C@H](CCCN)NCc2cc(-c3ccccc3)ccc2Sc2c(Cl)cccc2CNC(=O)[C@@H]1Cc1c[nH]c2ccccc12` [Example 49, (12S,15S,18S)-15-(4-Amino-butyl)-18-(3-amino-propyl)-4-chloro-12-(1H-indol-3-ylmethyl)-13-methyl-23-phenyl-2-thia-10,13,16,19-tetraaza-tricyclo[19.4.0.0*3,8*]pentacosa-1(25),3,5,7,21,23-hexaene-11,14,17-trione], for which the pIC50 is 4.97.
In turn, `CN1C(=O)[C@H](CCCCN)NC(=O)[C@H](CCCN)NCc2cc(-c3ccc(CN)cc3)ccc2Sc2c(Cl)cccc2CNC(=O)[C@@H]1Cc1c[nH]c2ccccc12` [Example 50, (12S,15S,18S)-15-(4-Amino-butyl)-23-(4-aminomethyl-phenyl)-18-(3-amino-propyl)-4-chloro-12-(1H-indol-3-ylmethyl)-13-methyl-2-thia-10,13,16,19-tetraaza-tricyclo[19.4.0.0*3,8*]pentacosa-1(25),3,5,7,21,23-hexaene-11,14,17-trione] showed a pIC50 of 5.07. The pIC50 values of the last two compounds are within 0.2 log units of each other.
In turn, `CN1C(=O)[C@H](CCCCN)NC(=O)[C@H](CCCN)NCc2ccc(Br)cc2Sc2c(Cl)cccc2CNC(=O)[C@@H]1Cc1c[nH]c2ccccc12` [Example 51, (12S,15S,18S)-15-(4-Amino-butyl)-18-(3-amino-propyl)-24-bromo-4-chloro-12-(1H-indol-3-ylmethyl)-13-methyl-2-thia-10,13,16,19-tetraaza-tricyclo[19.4.0.0*3,8*]pentacosa-1(25),3,5,7,21,23-hexaene-11,14,17-trione] showed a pIC50 of 4.91.
Regarding `CN1C(=O)[C@H](CCCCN)NC(=O)[C@H](CCCN)NCc2ccc(-c3ccccc3)cc2Sc2c(Cl)cccc2CNC(=O)[C@@H]1Cc1c[nH]c2ccccc12` [Example 52, (12S,15S,18S)-15-(4-Amino-butyl)-18-(3-amino-propyl)-4-chloro-12-(1H-indol-3-ylmethyl)-13-methyl-24-phenyl-2-thia-10,13,16,19-tetraaza-tricyclo[19.4.0.0*3,8*]pentacosa-1(25),3,5,7,21,23-hexaene-11,14,17-trione], the pIC50 was 4.93. The pIC50 values of the last two compounds are within 0.2 log units of each other.
